In publication PMC3702004, “Comparison of Intake and Systemic Relative Effect Potencies of Dioxin-like Compounds in Female Mice after a Single Oral Dose” (Environmental Health Perspectives, 2013):

Test system: Cyp1b1 mRNA
Assay: Cyp1b1 gene expression in liver (real-time PCR)
Assay type: in vivo, female C57BL/6 mice
Conditions: female, C57BL/6, mouse, in vivo; single oral dose, day 3; read-out: Maximum induction of hepatic Cyp1b1 mRNA, of the maximal response of TCDD
Procedure: Animals. Eight-week-old female C57BL/6 mice (Harlan laboratories, Venray, the Netherlands) were randomly assigned to treatment groups (six animals per group) and allowed to acclimate for 1.5 weeks. The animals were housed in groups in standard cages and conditions (23 ± 2°C, 50–60% relative humidity, 12-hr dark/light cycle) with free access to food and water. Mice received a single dose of test compound by oral gavage at a dosing volume of 10 mL/kg body weight (BW). Mice treated with corn oil vehicle (10 mL/kg BW) served as controls. For each congener, five different doses were administered, ranging from 0.5–100 μg/kg BW (TCDD) to 5,000–500,000 µg/kg BW (PCB-153). Detailed information on doses is provided in Supplemental Material, Table S1 (http://dx.doi.org/10.1289/ehp.1206336). On day 3 after dosing, animals were euthanized by CO2/O2 asphyxiation, and blood was immediately collected from the abdominal aorta. The liver, thymus, spleen, and adipose tissue were removed, weighed (liver, thymus, and spleen), snap frozen, and stored at –80°C. All animal treatments were performed with permission of the Animal Ethical Committee (DEC Utrecht) and performed according to the [Law on Animal Experiments (1977)]. Animals were treated humanely and with regard for alleviation of suffering.
RNA isolation and quantitative real-time polymerase chain reaction (PCR). Total RNA was isolated from liver and PBLs using a QIAGEN RNeasy kit (QIAGEN). Purity and concentration of the isolated RNA was determined by measuring the absorbance ratio at 260/280 nm and 230/260 nm with a Nanodrop 2000 spectrophotometer (Thermo Scientific, Asheville, NC, USA). RNA was reverse transcribed to complementary DNA (cDNA) using the iScript cDNA synthesis Kit (Bio-Rad, Veenendaal, the Netherlands). Quantitative real-time PCR analyses were performed using the iQ Real-Time PCR Detection System with SYBR green (Bio-Rad). Amplification reactions were set up with […] containing 12.5 μL iQ SYBR Green Supermix (Bio-rad), 0.5 μL distilled H2O, 1 μL (10 μM) forward primer, 1 μL (10 μM) reverse primer, and 10 μL first strand cDNA (10X diluted). Primer sequences were as follows: Cyp1a1: forward-5´-GGTTAACCATGACCGGGAACT-3´ and reverse-5´-TGCCCAAACCAAAGAGAGTGA-3´ ([Schulz et al. 2012]); Cyp1a2: forward-5´-ACATTCCCAAGGAGCGCTGTATCT-3´ and reverse-5´-GTCGATGGCCGAGTTGTTATTGGT-3´ ([Flaveny et al. 2010]); Cyp1b1: forward-5´-GTGGCTGCTCATCCTCTTTACC-3´ and reverse-5´-CCCACAACCTGGTCCAACTC-3´ ([Berge et al. 2004]); β-actin: forward-5´-ATGCTCCCCGGGCTGTAT-3´ and reverse-5´-CATAGGAGTCCTTCTGACCCATTC-3´ ([Schulz et al. 2012]). All primers were run through the National Center for Biotechnology Information Primer-BLAST database (http://www.ncbi.nlm.nih.gov/tools/primer-blast/) to confirm specificity and validate for optimal annealing temperature (60°C for all primers) and efficiency. The efficiency of all primer pairs was 98–102% (tested at 60°C). The following program was used for denaturation and amplification of cDNA: 3 min at 95°C, followed by 40 cycles of 15 sec at 95°C and 45 sec at 60°C. Gene expression for each sample was expressed as threshold cycle (Ct), normalized to the reference gene β-actin (ΔCt). We calculated fold induction relative to the control group.
Data analysis. We obtained concentration–response curves using a sigmoidal dose–response nonlinear regression curve fit with variable slope (GraphPad Prism 6.01; GraphPad Software Inc., San Diego, CA, USA):
In this Hill equation, y is the dependent variable (EROD activity or fold induction of mRNA levels), x the independent variable (administered or systemic dose), E0 is the estimated background response level, Emax is the maximum response, b is the estimated median effective concentration (EC50), and n is the shaping parameter of the Hill curve.
Using the congener-specific BMR20TCDD concentration, REPs were calculated relatively to TCDD: […]

For `Clc1ccc(-c2cc(Cl)c(Cl)cc2Cl)cc1Cl` [PCB-118, 2,3´,4,4´,5-pentachlorobiphenyl], the Emax was < 0.3%.
